Laboratory results reported in US11020481B2 (priority 2008, dated 2021).

How the values were obtained:
IL-6 [1] = assay: IL-6 production in LPS-induced HBE135 cells (ELISA); assay type: cell-based, human; conditions: for decrease in IL-6 levels: Example 5, 5 μg/ml LPS
Procedure: (§1) Am J Physiol Lung Cell Mol Physiol 2007; 292:[…]-352; and Donnarumma G, et al. Anti-inflammatory effects of moxifloxacin and human beta-defensin 2 association in human lung epithelial cell line (A549) stimulated with lipopolysaccharide. Peptides 2007; 28:2286-2292, incorporated by reference in their entireties). […] The effect of antibiotics on cytokine levels was assessed by ELISA assay. […] The day after seeding, cells received normal growth medium without serum for an additional 24 h. […] IL-6 and IL-8 production in NL20 monolayers was induced by treatment with 10 ng/ml of TNFα. […] After 48 h, cell medium was collected, clarified and the amount of IL-6 and IL-8 released into the medium was quantified using QuantiGlo chemiluminescent ELISA kits (R&D Systems, Minneapolis, Minn.). To test the effect of antibiotics on IL-6 and IL-8 secretion, antibiotics were added to culture media along with LPS or TNF-α and processed as described above.

IL-6 [2] = assay: IL-6 levels in BAL of LPS-injected mice after aerosol treatment; assay type: in vivo; conditions: LPS i.p., aerosol 60 mg/kg, BAL at 6 hours
Procedure: (§2) Mice (n=4) were injected with 50 μg LPS by an intraperitoneal route. […] Mice were sacrificed 6 hours after aerosolized treatment, and bronchoalveolar (BAL) fluid was collected by lavage with 1 ml saline. IL-6 and MIP-2 (murine homolog of human IL-8) levels were determined by ELISA.

IL-6 [3] = assay: IL-6 production in TNFα-induced NL20 cells (ELISA); assay type: cell-based, human
Procedure: as §1

MIP-2 = MIP-2 levels in BAL of LPS-injected mice after aerosol treatment; assay type: in vivo; conditions: 50 μg LPS i.p., aerosol 60 mg/kg 30 min after LPS, BAL 6 hours after treatment
Procedure: as §2

HBE135 cells = assay: Cytotoxicity on HBE135 cells, Alamar Blue assay; assay type: cell-based, human; conditions: for changes in cell viability in cytotoxicity assays: Example 5, LPS-induced HBE135 cells, 10-300 μg/ml, data not shown
Procedure: (§3) After 48 hour incubation with the antibiotic, cells were incubated in fresh growth media containing 5% Alamar Blue dye and fluorescence was recorded at 0 h and 4 h to assess antibiotic cytotoxicity.

IL-8 [4] = assay: IL-8 production in TNFα-induced NL20 cells (ELISA); assay type: cell-based, human; conditions: for levels of IL-8 decreased: p<0.005
Procedure: as §1

IL-8 mRNA = IL-8 mRNA expression in TNFα-induced NL20 cells (real-time PCR); assay type: cell-based, human; conditions: NL20 monolayers, 10 ng/ml TNFα, 24 h; 100 μg/ml and 300 μg/ml
Procedure: IL-8 mRNA expression in NL20 monolayers was induced by treatment with 10 ng/ml TNFα. Levofloxacin was added simultaneously with TNFα. After 24 h incubation, the cell monolayer was washed with PBS, total cellular RNA was prepared and reverse transcription was performed using a human IL-8 specific primer and the “Cells-to-cDNA” kit from Ambion (Austin, Tex.). cDNA was subjected to real-time PCR analysis using PowerSYBR Green PCR master mix and a GeneAmp 5700 Instrument (Applied Biosystems; Warrington, UK). All data were normalized to the housekeeping gene β-actin. […] This increase correlates with the increased levels of IL-8 protein induced by TNFα.

NL20 cells = system: NL20 cells
Procedure: as §3

IL-1β = IL-1β production in LPS-stimulated THP-1 cells (ELISA); assay type: cell-based, human; conditions: 24 h
Procedure: The human monocyte cell line, THP-1 is an established in vitro model of human monocytic cells and is capable to secrete a greater variety of cytokines compared to NL20 and HBE135 cells. THP-1 cells were cultured in RPMI-1640 medium with 10% FBS, 0.05 mM 2-mecraptoethanol. THP-1 cells were seeded on 24-well tissue culture plates at 1×10^6 cells/ml in growth media without serum. The following day, 100 ng/ml LPS from P. aeruginosa and antibiotics were added and cells incubated for 24 hours before media collection to assess cytokine production. Quantification of IL-6, IL-8, IL-1β and TNFα production was performed as described above for NL20 cells.

IL-8 [5] = assay: IL-8 production in LPS-induced HBE135 cells (ELISA); assay type: cell-based, human
Procedure: as §1

[6] = system: IL-8, IL-6, ERK1/2, MK, and NFKB; conditions: human lung epithelia cells; antibiotic concentrations less than 50 μg/ml; cited from earlier work
[7] = Example 5, NL20 cells, TNFα, 10 μg/ml to 100 μg/ml
[8] = Example 5, NL20 cells, TNFα, 300 μg/ml
[9] = summary of Example 5, cultured human lung epithelial cell lines (line not given)
[10] = Example 3, NL20 cells induced with TNFα, 300 μg/ml
[11] = summary of Example 5, cultured human lung epithelial cell lines (line not given), 300 μg/ml, p<0.05

**Q.** With `NC[C@H]1O[C@H](O[C@H]2[C@H](O)[C@@H](O[C@H]3O[C@H](CO)[C@@H](O)[C@H](N)[C@H]3O)[C@H](N)C[C@@H]2N)[C@H](N)C[C@@H]1O` [tobramycin] as the molecule, how does the “levels of IL-6” value (IL-6 [1]; Example 5, LPS, 10 μg/ml, 30 μg/ml, or 100 μg/ml) read?
**A.** The value was “did not affect”.

**Q.** What about the “increased levels of IL-6” value (IL-6 [1]; Example 5, LPS, 300 μg/ml) of the same molecule?
**A.** The value was 30%.

**Q.** What about the “IL-6 levels compared to the saline control” value (IL-6 [2]) of the same molecule?
**A.** The value was “increase”.

**Q.** What about the “production of IL-6” value (IL-6 [3]; [7]) of the same molecule?
**A.** Its value is “did not significantly affect”.

**Q.** What about the IL-6 production (IL-6 [3]; [8]) of the same molecule?
**A.** The IL-6 production was “increase”.

**Q.** What about the “increased IL-6 levels” value (IL-6 [3]; [9]) of the same molecule?
**A.** Its value is 50%.

**Q.** What about the “mean MIP-2 levels” value (MIP-2) of the same molecule?
**A.** The value was 502 pg/mL.

**Q.** And the “changes in cell viability in cytotoxicity assays” value (HBE135 cells)?
**A.** The value was “No significant changes”.

**Q.** And the “production of IL-8” value (IL-8 [4]; [7])?
**A.** Its value is “did not significantly affect”.

**Q.** What about the “effect on IL-8” value (IL-8 [4]; [9]) of the same molecule?
**A.** Its value is “no effect”.

**Q.** Which results are given for `O=C(O)c1cn(C2CC2)c2cc(N3CCNCC3)c(F)cc2c1=O` [ciprofloxacin]?
**A.** change in IL-6 levels (IL-6 [3]; Example 1, NL20 cells, 10 ng/ml TNFα, 48 h, 10 μg/ml and 30 μg/ml antibiotic): No significant change; IL-6 levels (IL-6 [3]; Example 1, NL20 cells, TNFα, 30 μg/ml): increase

**Q.** Which results are given for `C[C@H]1COc2c(N3CCN(C)CC3)c(F)cc3c(=O)c(C(=O)O)cn1c23` [levofloxacin]?
**A.** decrease in IL-6 levels (IL-6 [1]; 100 μg/ml): 45%; decrease in IL-6 levels (IL-6 [1]; 300 μg/ml): 40%; IL-6 levels lower than in the saline control (IL-6 [2]; p<0.05): more than 2 fold; level of IL-8 mRNA expression (IL-8 mRNA): no significant effect; cytotoxicity compared to moxifloxacin and ciprofloxacin (NL20 cells): less cytotoxic; reduction in IL-6 levels (IL-6 [3]; [10]): ~10 fold; reduction in IL-6 levels (IL-6 [3]; Example 5, NL20 cells, 10 ng/ml TNFα, 100 μg/ml, p<0.005): 2 fold; reduction in IL-6 levels (IL-6 [3]; Example 5, NL20 cells, 10 ng/ml TNFα, 300 μg/ml, p<0.005): 4 fold; reduced levels of IL-6 (IL-6 [3]; [11]): 4 fold; decrease in IL-1I3 levels (IL-1β; 100 μg/ml): 40%; decrease in IL-1I3 levels (IL-1β; 300 μg/ml): 70%; changes in cell viability in cytotoxicity assays (HBE135 cells): No significant changes; cytotoxicity compared to moxifloxacin and ciprofloxacin (HBE135 cells; HBE135 cells, 48 hour incubation, higher concentrations): less cytotoxic; levels of IL-8 decreased (IL-8 [5]; Example 5, 100 μg/ml): 30%; levels of IL-8 decreased (IL-8 [5]; Example 5, 300 μg/ml): 20%; reduction in IL-8 levels (IL-8 [4]; [10]): ~5 fold; levels of IL-8 decreased (IL-8 [4]; Example 5, NL20 cells, TNFα, 100 μg/ml): 50%; levels of IL-8 decreased (IL-8 [4]; [8]): 60%; reduced levels of IL-8 (IL-8 [4]; [11]): 2 fold

**Q.** With `Cc1c(F)c(N2CCNC(C)C2)cc2c1c(=O)c(C(=O)O)cn2C1CC1` (centres unmarked) [grepafloxacin] as the molecule, how does the “secretion of pro-inflammatory factor such as IL-8, IL-6, ERK1/2, MK, and NFKB” value [6] read?
**A.** The value was “can inhibit”.
